How the values were obtained:
Assay type in all cases: binding
[1] = molecular target: T1, SW480 colon carcinoma cells lysate proteins (Homo sapiens, UniProt Q9BVC6); conditions: PreyGene TMEM109; SW480 cells
T1 sequence (Q9BVC6 34-243): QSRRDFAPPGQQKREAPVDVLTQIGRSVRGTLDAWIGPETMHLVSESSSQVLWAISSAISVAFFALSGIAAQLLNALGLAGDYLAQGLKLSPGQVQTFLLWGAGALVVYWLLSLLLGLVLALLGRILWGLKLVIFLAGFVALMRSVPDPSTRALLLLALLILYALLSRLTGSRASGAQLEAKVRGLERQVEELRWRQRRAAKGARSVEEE

[2] = molecular target: T2, SW480 colon carcinoma cells lysate proteins (Homo sapiens, UniProt P29373); conditions: PreyGene CRABP2
T2 sequence (P29373 1-138): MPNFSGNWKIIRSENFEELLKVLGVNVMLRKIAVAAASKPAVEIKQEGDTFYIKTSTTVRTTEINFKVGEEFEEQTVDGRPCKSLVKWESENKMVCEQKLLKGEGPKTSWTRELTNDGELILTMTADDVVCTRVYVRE

[3] = molecular target: T3, SW480 colon carcinoma cells lysate proteins (Homo sapiens, UniProt Q9H9Z2); conditions: PreyGene LIN28A
T3 sequence (Q9H9Z2 1-209): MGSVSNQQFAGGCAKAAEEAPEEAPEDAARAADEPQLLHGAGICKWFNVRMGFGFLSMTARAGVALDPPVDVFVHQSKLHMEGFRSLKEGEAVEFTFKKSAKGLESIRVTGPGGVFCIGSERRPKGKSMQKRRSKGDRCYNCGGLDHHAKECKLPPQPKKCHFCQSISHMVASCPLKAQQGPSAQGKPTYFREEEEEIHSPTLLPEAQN

[4] = molecular target: T4, SW480 colon carcinoma cells lysate proteins (Homo sapiens, UniProt P41250); conditions: PreyGene GARS
T4 sequence (P41250 37-739): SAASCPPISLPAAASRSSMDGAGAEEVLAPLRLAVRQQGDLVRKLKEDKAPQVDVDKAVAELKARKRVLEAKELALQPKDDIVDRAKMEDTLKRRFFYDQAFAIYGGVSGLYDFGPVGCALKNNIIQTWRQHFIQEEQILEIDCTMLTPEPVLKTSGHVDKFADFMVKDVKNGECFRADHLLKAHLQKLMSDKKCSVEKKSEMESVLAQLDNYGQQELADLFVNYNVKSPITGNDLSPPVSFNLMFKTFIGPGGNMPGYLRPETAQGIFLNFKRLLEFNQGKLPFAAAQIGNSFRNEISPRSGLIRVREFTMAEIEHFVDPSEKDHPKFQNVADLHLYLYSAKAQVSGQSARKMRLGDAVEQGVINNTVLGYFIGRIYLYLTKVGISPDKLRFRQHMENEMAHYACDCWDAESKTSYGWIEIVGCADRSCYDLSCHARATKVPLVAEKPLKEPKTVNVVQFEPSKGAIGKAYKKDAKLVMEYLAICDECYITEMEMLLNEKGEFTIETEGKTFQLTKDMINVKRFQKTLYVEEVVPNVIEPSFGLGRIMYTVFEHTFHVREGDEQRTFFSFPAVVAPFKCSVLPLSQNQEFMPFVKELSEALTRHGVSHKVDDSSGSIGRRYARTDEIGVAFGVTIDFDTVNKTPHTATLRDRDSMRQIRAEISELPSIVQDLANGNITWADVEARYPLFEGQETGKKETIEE

[5] = molecular target: T5, SW480 colon carcinoma cells lysate proteins (Homo sapiens, UniProt Q9Y2B0); conditions: PreyGene CNPY2; SW480 cells
T5 sequence (Q9Y2B0 21-182): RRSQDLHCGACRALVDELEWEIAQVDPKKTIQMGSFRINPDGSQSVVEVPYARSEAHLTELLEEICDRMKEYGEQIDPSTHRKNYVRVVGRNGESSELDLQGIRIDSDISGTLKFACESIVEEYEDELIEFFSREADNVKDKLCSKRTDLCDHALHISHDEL

[6] = molecular target: T6, SW480 colon carcinoma cells lysate proteins (Homo sapiens, UniProt O43175); conditions: PreyGene PHGDH
T6 sequence (O43175 1-533): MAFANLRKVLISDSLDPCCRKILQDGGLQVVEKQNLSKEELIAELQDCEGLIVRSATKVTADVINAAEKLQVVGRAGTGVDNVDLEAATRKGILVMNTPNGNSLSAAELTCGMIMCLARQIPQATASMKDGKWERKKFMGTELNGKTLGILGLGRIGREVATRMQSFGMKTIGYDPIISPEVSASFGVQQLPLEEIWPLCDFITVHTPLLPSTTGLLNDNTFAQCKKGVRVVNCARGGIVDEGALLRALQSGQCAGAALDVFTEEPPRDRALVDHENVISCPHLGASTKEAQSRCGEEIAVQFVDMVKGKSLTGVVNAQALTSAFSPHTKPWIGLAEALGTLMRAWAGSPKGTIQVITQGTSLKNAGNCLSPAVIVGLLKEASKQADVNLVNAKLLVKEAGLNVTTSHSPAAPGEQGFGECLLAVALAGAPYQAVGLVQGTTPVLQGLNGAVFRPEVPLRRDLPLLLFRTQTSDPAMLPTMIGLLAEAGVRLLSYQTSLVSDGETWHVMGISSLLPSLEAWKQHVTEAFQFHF

[7] = molecular target: SW480 colon carcinoma cells lysate proteins (Homo sapiens, UniProt P83731); conditions: PreyGene RPL24; SW480 cells

For `C[C@H](Oc1cc(-c2cnn(C3CCNCC3)c2)cnc1N)c1c(Cl)ccc(F)c1Cl` [(5)-crizotinib], the AvgP [1] was 0, the “SC.Exp. 1-1” value [1] was 1 and the “SC.Exp. 1-2” value [1] was 1. For the same compound, the “SC.Exp. 2-1” value [1] was 0, the “SC.Exp. 2-2” value [1] was 1 and the “SC.Exp. Sum” value [1] was 3. For the same compound, the AvgP [2] was 0.2533, the “SC.Exp. 1-1” value [2] was 4 and the “SC.Exp. 1-2” value [2] was 1. For the same compound, the “SC.Exp. 2-1” value [2] was 0, the “SC.Exp. 2-2” value [2] was 0 and the “Sum (SC.Exp.)” value [2] was 5. The AvgP [3] was 0.3021, the “SC.Exp. 1-1” value [3] was 2 and the “SC.Exp. 1-2” value [3] was 2. The “SC.Exp. 2-1” value [3] was 2, the “SC.Exp. 2-2” value [3] was 0 and the “Sum (SC.Exp.)” value [3] was 6. The AvgP [4] was 0.4818, the “SC.Exp. 1-1” value [4] was 6 and the “SC.Exp. 1-2” value [4] was 7. The “SC.Exp. 2-1” value [4] was 0, the “SC.Exp. 2-2” value [4] was 0 and the “Sum (SC.Exp.)” value [4] was 13. The AvgP [5] was 0, the “SC.Exp. 1-1” value [5] was 1 and the “SC.Exp. 1-2” value [5] was 0. The “SC.Exp. 2-1” value [5] was 0, the “SC.Exp. 2-2” value [5] was 0 and the “SC.Exp. Sum” value [5] was 1. The AvgP [6] was 0.4081, the “SC.Exp. 1-1” value [6] was 5 and the “SC.Exp. 1-2” value [6] was 7. For the same compound, the “SC.Exp. 2-1” value [6] was 0, the “SC.Exp. 2-2” value [6] was 0 and the “Sum (SC.Exp.)” value [6] was 12. The AvgP [7] was 0, the “SC.Exp. 1-1” value [7] was 4 and the “SC.Exp. 1-2” value [7] was 4. For the same compound, the “SC.Exp. 2-1” value [7] was 3, the “SC.Exp. 2-2” value [7] was 4 and the “SC.Exp. Sum” value [7] was 15.

Source: patent US9446039B2, “Aminoheteroaryl compounds as MTH1 inhibitors” (CEMM—FORSCHUNGSZENTRUM FÜR MOLEKULARE MEDIZIN GMBH, priority 2012, dated 2016)
